One block for each compound: values may come before it.
Key:
[1] = tested on: GmNAS1 protein lacking any one CBS functional domain; assay: isothermal titration calorimetry, GmNAS1 protein lacking a CBS functional domain, binding to AMP; parameters: species or system soybean; conditions: ITC
Description: (§1) Utilize the prokaryotic expression system of Escherichia coli to express and purify GmNAS1 and GmNAP1 proteins; and then utilize isothermal titration calorimetry to detect the binding ability of GmNAS1/GmNAP1 to AMP, ADP, ATP and cAMP.

GmNAP1 protein = assay: isothermal titration calorimetry, binding of GmNAP1 to AMP/ADP/ATP/cAMP; parameters: species or system soybean; conditions: ITC, GmNAP1 expressed in Escherichia coli and purified
Description: as §1

GmNFYC10a-GFP = GmNFYC10a-GFP fluorescence localization in sections of mature root nodules; assay type: cell-based, soybean; conditions: nodule sections treated for 2 hours, 25 days after inoculation with Rhizobia
Description: This application also uses co-immunoprecipitation coupled mass spectrometry analysis technology to search for candidate proteins that bind to GmNAP1. In the mass spectrometry results, a transcription factor GmNFYC10a is discovered. […] In order to verify this speculation, we first obtains GmNFYC10a-GFP transgenic hairy roots, and carrying out vibration sectioning of mature root nodules 25 days after inoculation with Rhizobia. […] (FIG. 14).

[2] = tested on: interaction between GmNAS1 and GmNFYC10a; assay: pull-down of GmNAS1 and GmNFYC10a interaction; assay type: binding, soybean
GmNAS1 protein = assay: isothermal titration calorimetry, binding of GmNAS1 to AMP/ADP/ATP/cAMP; parameters: species or system soybean; conditions: ITC
Description: as §1

[3] = tested on: soybean root nodule cells; assay: GmNFYC10a nuclear protein level and glycolysis gene expression in root nodules before and after sucrose treatment; assay type: in vivo; conditions: after sucrose treatment
soybean root nodules = assay: nodule nitrogenase activity after sucrose treatment of plants inoculated with USDA110; assay type: in vivo; conditions: wild-type W82, 3% (w/v) sucrose solution for three days
Protocol: Design editing site identification primers based on the target sequences of sgRNA on GmNAS1 and GmNAP1, amplify the corresponding fragments and send them for sequencing. The sequencing results are analyzed and four function loss mutants of cr-nas1, cr-nap1, cr-nas1nap1-1 and cr-nas1nap1-2 are obtained. The nodule number, nodule weight and nodule nitrogenase activity on the 25th day after the mutant plants are inoculated with Rhizobia USDA110 are measured.
By utilizing gene editing technology, we obtain the functional knockout mutant cr-nas1 of GmNAS1, the functional knockout mutant cr-nap1 of GmNAP1, and the double knockout mutants cr-nas1nap1-1 and cr-nas1nap1-2 of GmNAS1 and GmNAP1. The root nodules of these four soybean mutants are phenotypically determined 25 days after inoculation with USDA110.

Structure (SMILES): Nc1ncnc2c1ncn2[C@@H]1O[C@H](COP(=O)(O)O)[C@@H](O)[C@H]1O [AMP]
binding to GmNAS1 protein lacking any one CBS functional domain [1]: not capable of binding
binding to GmNAP1 (GmNAP1 protein): does not bind
GmNFYC10a-GFP fluorescence in the nucleus (GmNFYC10a-GFP): increased significantly
effect on interaction between GmNAS1 and GmNFYC10a [2]: significantly inhibit

binding to GmNAP1 (GmNAP1 protein): does not bind
binding to GmNAS1 (GmNAS1 protein): does not bind
Structure (SMILES): Nc1ncnc2c1ncn2[C@@H]1O[C@H](COP(=O)(O)OP(=O)(O)OP(=O)(O)O)[C@@H](O)[C@H]1O [ATP]

Structure (SMILES): CC[C@H]1/C=C/C=C/C[C@@H](C)[C@H](O)[C@@](C)(O)C(=O)[C@@H](C)[C@H](O)[C@@H](C)C(=O)[C@@H](C)[C@H](O)[C@@H](C)/C=C/C(=O)O[C@@H]2[C@H](C)[C@H](CC1)O[C@]1(CC[C@H](C)[C@H](C[C@@H](C)O)O1)[C@H]2C [oligomycin]
GmNFYC10a-GFP fluorescence in the nucleus (GmNFYC10a-GFP): increased significantly

Structure (SMILES): OC[C@H]1O[C@@](CO)(O[C@H]2O[C@H](CO)[C@@H](O)[C@H](O)[C@H]2O)[C@@H](O)[C@@H]1O [sucrose]
protein content of GmNFYC10a in the nucleus ([3]; nuclei of soybean root nodule cells): decreases significantly
expression of glycolysis-related genes ([3]; root nodules): significantly down-regulated
nitrogenase activity of wild-type plants vs plants without sucrose (soybean root nodules): significantly higher

Structure (SMILES): Nc1ncnc2c1ncn2[C@@H]1O[C@H](COP(=O)(O)OP(=O)(O)O)[C@@H](O)[C@H]1O [ADP]
binding to GmNAP1 (GmNAP1 protein): does not bind

Reference: patent US20250101448A1, “Protein, Gene and Their Vectors and Applications that Control Symbiotic Nitrogen Fixation Efficiency of Soybeans” (priority 2022, published 2025)
